Experimental data from patent publication US20080293712A1, “Benzo[C][2,7]Naphtyridine Derivatives, Methods of Making Thereof and Methods of Use Thereof” (WYETH, priority 2007, published 2008).
pIC50: −log10 of the molar value.

Experiments:
Assay type in all cases: biochemical
[1] = biological target: T1, PDK-1 (Homo sapiens, UniProt O15530); assay: PDK-1 kinase inhibition ELISA assay (phosphorylation of His6-tagged SGK1 S422D by PDK-1); settings: PDK-1 ELISA, Table 11; read-out: Average IC50
T1 sequence (O15530 1-556): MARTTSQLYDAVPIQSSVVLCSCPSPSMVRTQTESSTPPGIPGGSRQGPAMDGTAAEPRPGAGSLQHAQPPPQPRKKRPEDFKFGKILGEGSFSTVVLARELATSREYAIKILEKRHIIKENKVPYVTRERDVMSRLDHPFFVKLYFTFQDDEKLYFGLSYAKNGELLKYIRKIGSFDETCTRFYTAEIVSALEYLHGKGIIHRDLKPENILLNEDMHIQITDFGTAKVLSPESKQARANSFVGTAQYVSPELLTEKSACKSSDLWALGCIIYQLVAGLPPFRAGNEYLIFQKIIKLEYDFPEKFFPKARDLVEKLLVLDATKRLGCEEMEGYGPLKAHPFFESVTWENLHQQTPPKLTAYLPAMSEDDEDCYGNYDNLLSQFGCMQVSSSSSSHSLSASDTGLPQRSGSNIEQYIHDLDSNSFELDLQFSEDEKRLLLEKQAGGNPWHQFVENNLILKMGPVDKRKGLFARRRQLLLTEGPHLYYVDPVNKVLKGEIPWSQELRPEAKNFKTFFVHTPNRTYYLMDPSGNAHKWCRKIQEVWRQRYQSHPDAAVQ

[2] = biological target: Akt1 (Homo sapiens, UniProt P31749); assay: Akt1 kinase inhibition, Z'-LYTE FRET assay; settings: 100 μM ATP
From the text: (§1) The ability of illustrative Benzo[c][2,7]naphthyridine Derivatives to inhibit PKA, Akt1, S6K in vitro can be determined using a Fluorescence Resonance Energy Transfer (FRET) assay, such as a Z′-LYTE™ Kinase Assay Platform, commercially available from Invitrogen (c.f. Rodems et al., ASSAY Drug Devel. Technol. 1:9-19 (2002) and Zhang et al., J. Biomol. Screen. 4:67-73 (1999)). Z′-Lyte™ assay is an in vitro FRET-based assay that utilizes differential sensitivity of phosphorylated and non-phosphorylated peptides to proteolytic cleavage. The peptide substrate (also available from Invitrogen for each of PKA, Akt1 and S6K) is labeled with two different fluorophores, a fluorescence donor at one end of the peptide and a fluorescence acceptor at the other end of the peptide. In the primary kinase reaction, the kinase phosphorylates the peptide substrate in the presence of ATP. In the secondary reaction, a site-specific protease recognizes and cleaves non-phosphorylated peptides, but not phosphorylated peptides. Cleavage disrupts FRET between the donor and acceptor fluorophores on the peptide, whereas uncleaved phosphorylated peptides maintain FRET. Based on a formula that uses the ratio of donor emission (at 460 nm) to acceptor emission (at […]) after excitation of the donor fluorophore at 400 nm, the extent of phosphorylation of the peptide substrates is calculated. IC50 values of illustrative Benzo[c][2,7]naphthyridine Derivatives, shown in Table 12, are calculated using LSW Data Analysis package add-in for Excel (Microsoft).

[3] = biological target: S6K (Homo sapiens, UniProt P23443); assay: S6K kinase inhibition, Z'-LYTE FRET assay; settings: 100 μM ATP
From the text: as §1

[4] = biological target: T2, human PKCθ full length enzyme (Homo sapiens, UniProt Q04759); assay: PKCθ kinase inhibition, IMAP fluorescence polarization assay; settings: 6 μM ATP
T2 construct: human PKCθ full length enzyme; purchased Panvera, Madison, Wis., now Invitrogen, Carlsbad, Calif; P2996
From the text: The ability of illustrative Benzo[c][2,7]naphthyridine Derivatives to inhibit PKCθ can be determined using an IMAP Assay (Molecular Devices Corporation, Sunnyvale, Calif.). The materials used include the following: human PKCθ full length enzyme (Panvera, Madison, Wis., now Invitrogen, Carlsbad, Calif., Cat. No. P2996); substrate peptide: 5FAM-[…]-OH (Molecular Devices, Cat. No. RP7032); ATP (Sigma-Aldrich, St. Louis, Mo., Sigma Cat. No. A2383); DTT (e.g., Pierce, now Fisher Scientific, Waltham, Mass., Pierce Cat. No. 20291); 5× kinase reaction buffer (Molecular Devices, Cat. No. R7209); 5× binding buffer A (Molecular Devices, Cat. No. R7282), 5× binding buffer B (Molecular Devices, Cat. No. R7209); IMAP Beads (Molecular Devices, Cat. No. R7284); and 384-well plates (Corning Costar, Acton, Mass., Cat. No. 3710). The reaction buffer is prepared by diluting the 5× stock reaction buffer and adding DTT to obtain a concentration of 3.0 mM. The binding buffer is prepared by diluting the 5× binding buffer A. A master mix solution is prepared using a 90% dilution of the reaction buffer containing 2×ATP (12 μM) and 2× peptide (200 nM). […] The final concentration of compound is 2× and 10% DMSO. DMSO is added to the rest of the master mix to increase the concentration to 10%. 10 μl of the master mix containing 10% DMSO is added to the rest of the wells on the plate except the 2nd column. 20 μl is transferred from the first column to the 2nd column. The compounds are serially diluted in 2:1 ratio starting from the 2nd column. A 2× (2 nM) PKCθ solution is made in the reaction buffer. 10 μl of the PKCθ solution is added to every well to achieve these final concentrations: PKCθ—1 nM; ATP—6 μM; peptide—100 nM; DMSO—5%. Samples are incubated for 25 minutes at room temperature. The binding reagent is prepared by diluting the beads in 1× binding buffer to 800:1. 50 μl of the binding reagent is added to every well and incubated for 20 minutes. Fluorescence polarization is measured using EnVision™ 2100 multilabel reader (PerkinElmer Life Sciences, Wellesley, Mass.). Wells with no ATPs and wells with no enzymes are used as controls.

[5] = biological target: PKA (Homo sapiens, UniProt P17612); assay: PKA kinase inhibition, Z'-LYTE FRET assay
From the text: Z′-Lyte™ assay is an in vitro FRET-based assay that utilizes differential sensitivity of phosphorylated and non-phosphorylated peptides to proteolytic cleavage. The peptide substrate (also available from Invitrogen for each of PKA, Akt1 and S6K) is labeled with two different fluorophores, a fluorescence donor at one end of the peptide and a fluorescence acceptor at the other end of the peptide. In the primary kinase reaction, the kinase phosphorylates the peptide substrate in the presence of ATP. In the secondary reaction, a site-specific protease recognizes and cleaves non-phosphorylated peptides, but not phosphorylated peptides. Cleavage disrupts FRET between the donor and acceptor fluorophores on the peptide, whereas uncleaved phosphorylated peptides maintain FRET. Based on a formula that uses the ratio of donor emission (at 460 nm) to acceptor emission (at 535 nM) after excitation of the donor fluorophore at 400 nm, the extent of phosphorylation of the peptide substrates is calculated.

Sequence of S6K (P23443 whole entry): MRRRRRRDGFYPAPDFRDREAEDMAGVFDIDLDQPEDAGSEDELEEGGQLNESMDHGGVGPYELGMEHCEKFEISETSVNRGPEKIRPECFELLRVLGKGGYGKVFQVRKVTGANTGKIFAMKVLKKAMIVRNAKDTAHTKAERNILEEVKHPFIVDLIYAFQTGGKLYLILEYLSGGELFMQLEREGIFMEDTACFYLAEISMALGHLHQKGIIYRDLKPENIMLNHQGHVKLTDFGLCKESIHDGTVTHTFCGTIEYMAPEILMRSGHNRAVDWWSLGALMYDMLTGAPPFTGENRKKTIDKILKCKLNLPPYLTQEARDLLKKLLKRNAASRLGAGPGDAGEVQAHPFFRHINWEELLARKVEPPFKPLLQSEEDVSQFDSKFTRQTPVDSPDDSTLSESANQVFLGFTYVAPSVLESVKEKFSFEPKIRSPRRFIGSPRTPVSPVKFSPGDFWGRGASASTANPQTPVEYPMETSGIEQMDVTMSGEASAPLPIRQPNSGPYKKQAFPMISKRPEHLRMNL
Sequence of Akt1 (P31749 whole entry, species assumed): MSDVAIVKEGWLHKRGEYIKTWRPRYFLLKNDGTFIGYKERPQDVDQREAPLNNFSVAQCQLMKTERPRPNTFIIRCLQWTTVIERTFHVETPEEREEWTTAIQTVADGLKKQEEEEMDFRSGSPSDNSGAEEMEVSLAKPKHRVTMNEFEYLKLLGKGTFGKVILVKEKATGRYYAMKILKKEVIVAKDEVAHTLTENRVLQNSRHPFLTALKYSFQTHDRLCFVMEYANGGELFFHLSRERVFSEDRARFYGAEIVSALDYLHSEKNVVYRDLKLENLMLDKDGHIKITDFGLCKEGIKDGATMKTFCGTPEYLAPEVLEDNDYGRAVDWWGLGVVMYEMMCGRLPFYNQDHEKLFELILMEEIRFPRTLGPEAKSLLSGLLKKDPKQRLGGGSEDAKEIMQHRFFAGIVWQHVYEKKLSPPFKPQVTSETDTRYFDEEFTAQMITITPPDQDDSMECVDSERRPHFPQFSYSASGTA
T2 sequence (Q04759 whole entry): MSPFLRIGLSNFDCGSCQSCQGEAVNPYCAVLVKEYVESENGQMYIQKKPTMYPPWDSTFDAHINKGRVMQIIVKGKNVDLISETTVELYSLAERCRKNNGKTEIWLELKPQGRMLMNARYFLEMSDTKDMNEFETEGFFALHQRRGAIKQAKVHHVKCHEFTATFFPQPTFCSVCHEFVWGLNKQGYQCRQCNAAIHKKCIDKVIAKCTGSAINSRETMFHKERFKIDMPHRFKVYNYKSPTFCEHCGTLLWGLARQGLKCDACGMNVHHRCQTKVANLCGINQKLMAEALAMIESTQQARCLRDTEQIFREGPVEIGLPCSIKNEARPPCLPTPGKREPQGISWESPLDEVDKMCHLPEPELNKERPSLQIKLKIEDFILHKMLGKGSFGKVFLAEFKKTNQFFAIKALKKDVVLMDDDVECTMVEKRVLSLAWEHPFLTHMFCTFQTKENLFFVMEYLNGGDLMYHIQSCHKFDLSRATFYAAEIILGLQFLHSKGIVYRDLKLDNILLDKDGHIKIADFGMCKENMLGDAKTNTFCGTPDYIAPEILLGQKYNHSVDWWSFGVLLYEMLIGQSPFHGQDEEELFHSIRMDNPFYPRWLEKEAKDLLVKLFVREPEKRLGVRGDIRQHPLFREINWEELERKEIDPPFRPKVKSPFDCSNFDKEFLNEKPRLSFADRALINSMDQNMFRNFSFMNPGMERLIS

| Compound | pIC50 [1] | pIC50 [2] | pIC50 [3] | pIC50 [4] | pIC50 ([5]; 20 μM ATP) | pIC50 ([5]; 100 μM ATP) |
| --- | --- | --- | --- | --- | --- | --- |
| COc1cc2c(cc1OCCN1CCOCC1)ncc1c(N)nc(-n3ccnc3)cc12 [Ia-13, 2-(1H-imidazol-1-yl)-9-methoxy-8-(2-morpholinoethoxy)benzo[c][2,7]naphthyridin-4-amine] | 7.10 | 7.15 | 6.18 | 6.92 | < 5.00 | < 5.70 |
| COc1cc2ncc3c(N)nc(-c4cncc(O[C@@H]5CCNC5)c4)cc3c2cc1OC [Ib-58, 8,9-dimethoxy-2-{5-[(3R)-pyrrolidin-3-yloxy]pyridin-3-yl}benzo[c]-2,7-naphthyridin-4-amine] | 7.18 | 7.22 | 6.45 | 6.60 | 6.85 | 5.82 |
| COc1cc2ncc3c(N)nc(-c4cncc(OC[C@@H](N)Cc5ccccc5)c4)cc3c2cc1OC [Ib-62, 2-(5-{[(2S)-2-amino-3-phenylpropyl]oxy}pyridin-3-yl)-8,9-dimethoxybenzo[c]-2,7-naphthyridin-4-amine] | 8.00 | > 6.80 | 6.85 to 7.01 | 7.54 | 7.64 | 6.30 to 6.84 |
| COc1cc2ncc3c(N)nc(-c4cncc(OC[C@H](N)Cc5ccccc5)c4)cc3c2cc1OC [Ib-56, 2-(5-{[(2R)-2-amino-3-phenylpropyl]oxy}pyridin-3-yl)-8,9-dimethoxybenzo[c]-2,7-naphthyridin-4-amine] | – | 8.52 | 7.06 | 8.40 | > 6.80 | 6.59 |
| CCSc1cc2ncc3c(N)nc(-c4cncc(OC[C@@H](N)Cc5ccccc5)c4)cc3c2cc1OC [Ia-40, 2-(5-{[(2S)-2-amino-3-phenylpropyl]oxy}pyridin-3-yl)-8-(ethylthio)-9-methoxybenzo[c]-2,7-naphthyridin-4-amine] | 7.35 | 6.00 | – | 6.28 | < 4.70 | – |
| CCOc1cc2ncc3c(N)nc(-n4ccnc4)cc3c2cc1N [Ia-28, 8-Ethoxy-2-(1H-imidazol-1-yl)benzo[c]-2,7-naphthyridine-4,9-diamine] | 7.34 | 6.44 | 5.96 | 6.87 | – | < 5.70 |
| COc1cc2ncc3c(N)nc(-c4cncc(O)c4)cc3c2cc1OC [Ib-57, 5-(4-Amino-8,9-dimethoxybenzo[c]-2,7-naphthyridin-2-yl)pyridin-3-ol] | 7.24 | 6.52 | < 5.70 | 6.48 | < 4.70 | < 5.70 |
| COc1cc2ncc3c(N)nc(-c4cncc(O[C@H]5CCNC5)c4)cc3c2cc1OC [Ib-59, 8,9-dimethoxy-2-{5-[(3S)-pyrrolidin-3-yloxy]pyridin-3-yl}benzo[c]-2,7-naphthyridin-4-amine] | 7.19 | 6.54 | 5.91 | 6.23 | 5.70 | < 5.70 |
| COc1cc2ncc3c(N)nc(-c4cncc(OC[C@H](N)Cc5c[nH]c6ccccc56)c4)cc3c2cc1OC [Ib-55, 2-(5-{[(2R)-2-amino-3-(1H-indol-3-yl)propyl]oxy}pyridin-3-yl)-8,9-dimethoxybenzo[c]-2,7-naphthyridin-4-amine] | 7.82 | 7.74 | 6.60 | 8.52 | > 7.10 | 5.88 |
| COc1cc2c(cc1OCCN1CCCC1)ncc1c(N)nc(-n3ccnc3)cc12 [Ia-12, 2-(1H-imidazol-1-yl)-9-methoxy-8-(2-pyrrolidin-1-ylethoxy)benzo[c]-2,7-naphthyridin-4-amine] | 6.29 | 6.65 | – | 6.59 | < 5.00 | – |
| COCCOc1cc2ncc3c(N)nc(-c4cncc(OC[C@@H](N)Cc5ccccc5)c4)cc3c2cc1OC [Ia-11, 2-(5-{[(2S)-2-amino-3-phenylpropyl]oxy}pyridin-3-yl)-9-methoxy-8-(2-methoxyethoxy)benzo[c]-2,7-naphthyridin-4-amine] | 7.92 | 9.00 | 7.47 | 7.77 | 7.42 | 6.41 |
| COCCOc1cc2ncc3c(N)nc(-n4ccnc4)cc3c2cc1OC [Ia-48, 2-(1H-imidazol-1-yl)-9-methoxy-8-(2-methoxyethoxy)benzo[c]-2,7-naphthyridin-4-amine] | – | 6.70 | 5.86 | 6.94 | < 4.70 | < 5.70 |
